Measured values as given in US7226924B2, “Substituted 3,4-dihydro-pyrimido[1,2a]pyrimidines and 3,4-dihydro-pyrazino[1,2a]pyrimidines, and methods for their preparation and use” (priority 2000, dated 2007).

What was measured:
NMDA/MK801-binding site = NMDA/MK801-binding site inhibition; design: dose or concentration left out as unconfirmed
From the text: (§1) Compounds according to the invention were investigated with respect to their pharmacological properties using methods described by J. P. Devlin in “High throughput screening—the discovery of bioactive substances,” Marcel Dekker, New York, 1997, pages 275 to 453.

μ-opiate receptor = μ-opiate receptor (Homo sapiens, UniProt P35372); assay: μ-opiate receptor binding; settings: read-out: Ki Value of the μ-opiate Receptor Bond
μ-opiate receptor, sequence (P35372 whole entry, species assumed): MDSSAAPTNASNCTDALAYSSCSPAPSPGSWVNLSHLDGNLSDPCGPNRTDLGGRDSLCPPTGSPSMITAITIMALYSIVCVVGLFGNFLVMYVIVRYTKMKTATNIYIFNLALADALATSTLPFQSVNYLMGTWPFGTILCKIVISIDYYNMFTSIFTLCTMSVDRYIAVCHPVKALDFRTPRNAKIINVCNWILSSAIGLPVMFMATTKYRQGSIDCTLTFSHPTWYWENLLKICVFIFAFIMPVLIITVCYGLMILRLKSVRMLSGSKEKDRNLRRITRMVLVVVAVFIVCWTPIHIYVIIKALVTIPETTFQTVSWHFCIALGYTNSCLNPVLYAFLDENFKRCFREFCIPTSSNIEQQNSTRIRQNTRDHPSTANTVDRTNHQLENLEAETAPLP
From the text: as §1

| SMILES | % inhibition of NMDA/MK801-binding site (NMDA/MK801-binding site) [%] | Ki (μ-opiate receptor) [nM] |
| --- | --- | --- |
| BrC1=CN2C(=NC(c3ccccn3)C3CCC=CC32)N=C1 (centres unmarked) [Example 62, 3-bromo-9-pyridin-2-yl-7,8,84,9-tetrahydro--4bH-1,44,10-triaza-phenanthrene] | 40 | – |
| BrC1=CN2C(=NC(c3ccccn3)CC2Sc2ccccc2)N=C1 (centres unmarked) [Example 53, 7-bromo-4-phenylsulphanyl-2-pyridin-2-yl-3,4--dihydro-2H-pyrimido[1,2a]pyrimidine] | 44 | 2500 |
| OC1=CC(O)=NC2=NC(c3ccccn3)C3C4C=CC(C4)C3N12 (centres unmarked) [Example 61, 5,8-methano-9-pyridin-2-yl-5,8,84,9-tetrahydro--4bH-1,4a,10-triaza-phenanthrene-2,4-diol] | 40 | – |
| NC(=O)C1=NC(Cl)=C(N)N2C1=NC(c1ccccn1)CC2Sc1ccccc1 (centres unmarked) [Example 51, 6-Amino-7-chlor-4-phenylsulphanyl-2-pyridin-2--yl-3,4-dihydro-2H-pyrazino[1,2a]pyrimidin-9--carboxylic acid amide] | 40 | 1400 |
| N#CC1=NC(c2ccccc2)=CN2C1=NC(c1ccccn1)CC2Sc1ccccc1 (centres unmarked) [Example 52, 7-phenyl-4-phenylsulphanyl-2-pyridin-2-yl-3,4--dihydro-2H-pyrazino[1,2a]pyrimidine-9--carbonitrile] | 47 | 1400 |
